Measurements: ChEMBL document CHEMBL3867464, “Novel substituted aminothiazoles as potent and selective anti-hepatocellular carcinoma agents” (Bioorg Med Chem Lett, 2016)
≈ marks a conversion by molar mass, not a printed value.

Key:
[1] = Aqueous solubility of the compound at pH 7.4; format: physicochemical; details: buffer
[2] = Volume of distribution at steady state in CD-1 mouse at 1 mg/kg, iv; format: ADME, organism-based; details: in vivo, read-out: Vdss
[3] = Stability in human liver microsomes assessed as parent compound remaining measured at 60 mins; format: ADME; details: read-out: Stability
[4] = Drug metabolism in human liver microsomes assessed as CYP450-mediated 4-(pyrazin-2-yl)-2-(pyrimidin-2-ylamino)thiazole-5-carboxylic acid formation measured at 60 mins; format: ADME; details: 1 h
[5] = Half life in CD-1 mouse at 1 mg/kg, iv; format: ADME, organism-based; details: in vivo
[6] = Cytotoxicity against human hepatic cancer cells derived from HCC patient assessed as change in cell proliferation by measuring response rate at 1 uM after 48 hrs by Ki-67 immunostaining based assay; format: functional, Cancer cell lines
Huh-7 [7] = test: Selectivity index, ratio of CC50 for human THLE2 cells to CC50 for human HuH7 cells; format: functional
[8] = AUClast in CD-1 mouse at 1 mg/kg, iv; format: ADME, organism-based; details: in vivo
[9] = Drug uptake in CD-1 mouse liver at 2.5 mg/kg, po; format: ADME, organism-based; details: in vivo
[10] = Stability in mouse liver microsomes assessed as parent compound remaining measured at 60 mins; format: ADME; details: read-out: Stability
[11] = Cytotoxicity against human PH5CH cells assessed as decrease in cell viability after 72 hrs by MTT assay; format: toxicity, cell-based
[12] = AUClast in CD-1 mouse at 2.5 mg/kg, po; format: ADME, organism-based; details: in vivo
[13] = Cmax in CD-1 mouse at 2.5 mg/kg, po; format: ADME, organism-based; set-up: dose 2.5 mg/kg, route oral; details: in vivo
[14] = Tmax in CD-1 mouse at 2.5 mg/kg, po; format: ADME, organism-based; details: in vivo
[15] = Drug metabolism in mouse liver microsomes assessed as CYP450-mediated 4-(pyrazin-2-yl)-2-(pyrimidin-2-ylamino)thiazole-5-carboxylic acid formation measured at 60 mins; format: ADME; details: 1 h
[16] = Cytotoxicity against human HuH7 cells assessed as decrease in cell viability after 72 hrs by MTT assay; format: functional; details: Huh-7, 72 h
[17] = Oral bioavailability in CD-1 mouse at 2.5 mg/kg; format: ADME, organism-based; details: in vivo
[18] = Cytotoxicity against human THLE2 cells assessed as decrease in cell viability after 72 hrs by MTT assay; format: toxicity, cell-based; details: thle-2, 72 h
Huh-7 [19] = test: Selectivity index, ratio of CC50 for human PH5CH cells to CC50 for human HuH7 cells; format: functional
[20] = Aqueous solubility of the compound at pH 4; format: physicochemical; details: buffer
[21] = Tmax in CD-1 mouse at 1 mg/kg, iv; format: ADME, organism-based; details: in vivo
[22] = Solubility of the compound in ethyl acetate solution; format: physicochemical
[23] = Solubility of the compound in ethanol solution; format: physicochemical
[24] = Solubility of the compound in methylene chloride solution; format: physicochemical
[25] = Drug level in human liver microsomes treated with IHVR-04042 assessed as CYP450-mediated compound formation measured at 60 mins; format: ADME; details: 1 h
[26] = Drug level in mouse liver microsomes treated with IHVR-04042 assessed as CYP450-mediated compound formation measured at 60 mins; format: ADME; details: 1 h
[27] = Oral bioavailability in CD-1 mouse at 10 mg/kg; format: ADME, organism-based; details: in vivo
[28] = AUClast in CD-1 mouse at 2 mg/kg, iv; format: ADME, organism-based; details: in vivo
[29] = AUClast in CD-1 mouse at 10 mg/kg, po; format: ADME, organism-based; details: in vivo
[30] = Drug metabolism in mouse liver microsomes assessed as CYP450-mediated 4-(pyridin-2-yl)-2-(pyrimidin-2-ylamino)thiazole-5-carboxylic acid formation measured at 60 mins; format: ADME; details: 1 h
[31] = Half life in CD-1 mouse at 2 mg/kg, iv; format: ADME, organism-based; details: in vivo
[32] = Tmax in CD-1 mouse at 10 mg/kg, po; format: ADME, organism-based; details: in vivo
[33] = Tmax in CD-1 mouse at 2 mg/kg, iv; format: ADME, organism-based; details: in vivo
[34] = Drug metabolism in human liver microsomes assessed as CYP450-mediated 4-(pyridin-2-yl)-2-(pyrimidin-2-ylamino)thiazole-5-carboxylic acid formation measured at 60 mins; format: ADME; details: 1 h
[35] = Half life in CD-1 mouse at 10 mg/kg, po; format: ADME, organism-based; details: in vivo
[36] = Cmax in CD-1 mouse at 10 mg/kg, po; format: ADME, organism-based; set-up: dose 10 mg/kg, route oral; details: in vivo
[37] = Volume of distribution at steady state in CD-1 mouse at 2 mg/kg, iv; format: ADME, organism-based; details: in vivo, read-out: Vdss
[38] = Drug level in human liver microsomes treated with isopropyl 4-(pyrazin-2-yl)-2-(pyrimidin-2-ylamino)thiazole-5-carboxylate assessed as CYP450-mediated compound formation measured at 60 mins; format: ADME; details: 1 h
[39] = Drug level in mouse liver microsomes treated with isopropyl 4-(pyrazin-2-yl)-2-(pyrimidin-2-ylamino)thiazole-5-carboxylate assessed as CYP450-mediated compound formation measured at 60 mins; format: ADME; details: 1 h

| Compound | Selectivity Index (Huh-7 [7]) | CC50 [11] | CC50 [16] | CC50 [18] | Selectivity Index (Huh-7 [19]) | other results |
| --- | --- | --- | --- | --- | --- | --- |
| CC(C)OC(=O)c1sc(Nc2ncccn2)nc1-c1cnccn1 | 471.7 | 50 µM | 0.11 µM | 50 µM | 471.7 | solubility [1]: 5.2 µM (≈ 1.78 µg/mL); Vd [2]: 3.49 L/kg; remaining at 1 h [3]: 70.9%; Drug metabolism [4]: Metabolite_Detected; half-life [5]: 26.4 min; Activity [6]: 38%; AUClast [8]: 142 ng·mL·h; Drug uptake [9]: 33 ng/g; remaining at 1 h [10]: 36.2%; AUClast [12]: 21.6 ng·mL·h; Cmax [13]: 48.7 ng/mL; Tmax [14]: 26.4 min; Drug metabolism [15]: Metabolite_Detected; bioavailability [17]: 15.2%; solubility [20]: 6.35 µM (≈ 2.17 µg/mL); Tmax [21]: 0 h |
| CC(C)OC(=O)OCN(c1ncccn1)c1nc(-c2cnccn2)c(C(=O)OC(C)C)s1 | 528.17 | 50 µM | 0.095 µM | 50 µM | 528.17 | solubility [22]: Soluble; solubility [23]: Soluble; solubility [24]: Soluble |
| c1ccc(-c2csc(Nc3ncccn3)n2)nc1 | 35.45 | – | 1.1 µM | – | 40.294 | – |
| CCOC(=O)c1sc(Nc2ncccn2)nc1-c1cnccn1 | 80.06 | 50 µM | 0.59 µM | 47.1 µM | 85.03 | – |
| CC(C)OC(=O)c1sc(Nc2ncccn2)nc1-c1ccncn1 | 38.11 | 50 µM | 1.21 µM | 46.2 µM | 41.24 | – |
| CC(C)OC(=O)c1sc(N(COP(=O)(OC(C)(C)C)OC(C)(C)C)c2ncccn2)nc1-c1cnccn1 | 51.28 | 50 µM | 0.98 µM | 50 µM | 51.28 | solubility [22]: Soluble; solubility [23]: Soluble; solubility [24]: Soluble |
| O=C(O)c1sc(Nc2ncccn2)nc1-c1ccccn1 | – | – | – | – | – | Drug metabolism [25]: Metabolite_Detected; Drug metabolism [26]: Metabolite_Detected |
| CC(C)OC(=O)c1sc(N(COP(=O)(OC(C)(C)C)OC(C)(C)C)c2ncccn2)nc1-c1ccccn1 | 111.42 | 50 µM | 0.38 µM | 42.2 µM | 131.93 | solubility [22]: Soluble; solubility [23]: Soluble; solubility [24]: Soluble |
| CCOC(=O)c1sc(NCc2ncccn2)nc1-c1ccccn1 | 1 | – | 50 µM | – | 1 | – |
| CCOCc1sc(NCc2ncccn2)nc1-c1ccccn1 | 1.11 | 50 µM | 44.8 µM | 49.6 µM | – | – |
| CC(C)OC(=O)c1sc(Nc2ncccn2)nc1-c1ccccn1 | 123.39 | 49.8 µM | 0.41 µM | 50 µM | – | – |
| c1ccc(-c2csc(NCc3ncccn3)n2)nc1 | 1.22 | 49.8 µM | 40.5 µM | 49.6 µM | – | – |
| O=C(O)CCc1sc(Nc2ncccn2)nc1-c1ccccn1 | 1.87 | 17.7 µM | 14.1 µM | 26.4 µM | 1.25 | – |
| CCOC(=O)c1sc(Nc2ncccn2)nc1-c1ncccc1C | 1.07 | 50 µM | 46.1 µM | 49.1 µM | – | – |
| CCOC(=O)Cc1sc(NCc2ncccn2)nc1-c1ccccn1 | 1.01 | 50 µM | 49.4 µM | 50 µM | 1.01 | – |
| CC(C)OC(=O)c1sc(Nc2ncccn2)nc1-c1ncccn1 | 30.96 | 50 µM | 1.62 µM | 50 µM | 30.96 | – |
| CCOC(=O)c1sc(Nc2ncccn2)nc1-c1ccccn1 | 253.954 | – | 0.18 µM | – | 214.328 | solubility [1]: 23.84 µM (≈ 7.8 µg/mL); remaining at 1 h [3]: 63.1%; bioavailability [27]: 10%; AUClast [28]: 224 ng·mL·h; AUClast [29]: 19.5 ng·mL·h; Drug metabolism [30]: Metabolite_Detected; half-life [31]: 14.4 min; Tmax [32]: 34.8 min; remaining at 1 h [10]: 43.3%; Tmax [33]: 0 h; Drug metabolism [34]: Metabolite_Detected; half-life [35]: 115 min; solubility [20]: 112.84 µM (≈ 36.9 µg/mL); Cmax [36]: 94.1 ng/mL; Vd [37]: 1.45 L/kg |
| O=C(O)c1sc(Nc2ncccn2)nc1-c1cnccn1 | – | – | – | – | – | Drug metabolism [38]: Metabolite_Detected; Drug metabolism [39]: Metabolite_Detected |
| CCOC(=O)c1sc(Nc2ncccn2)nc1-c1cc(C(F)(F)F)ccn1 | 90.32 | 9.34 µM | 0.17 µM | 15 µM | 56.24 | – |
| COCCOCN(c1ncccn1)c1nc(-c2cnccn2)c(C(=O)OC(C)C)s1 | – | 50 µM | 50 µM | 50 µM | 1 | solubility [22]: Soluble; solubility [23]: Soluble; solubility [24]: Soluble |
| CCOC(=O)Cc1sc(Nc2ncccn2)nc1-c1ccccn1 | 35.94 | 50 µM | 1.39 µM | 50 µM | 35.94 | – |
| CCOC(=O)CCc1sc(Nc2ncccn2)nc1-c1ccccn1 | 5.1 | 10.1 µM | 2.05 µM | 10.5 µM | 4.93 | – |
| CCOCc1sc(Nc2ncccn2)nc1-c1ccccn1 | 13.08 | 39 µM | 3.19 µM | 41.8 µM | 12.23 | – |
| CCOC(=O)c1sc(Nc2ncccn2)nc1-c1ccncn1 | 25.46 | 40 µM | 1.6 µM | 40.8 µM | 24.97 | – |
